Drawing on patent US11111242B2, “Pyrrolo[2,3-d]pyrimidinyl, pyrrolo[2,3-b]pyrazinyl and pyrrolo[2,3-d]pyridinyl acrylamides” (Pfizer Inc., priority 2013, dated 2021), this text covers IC50 for 29 compounds.

Each structure is given as a SMILES string. Like-named read-outs stand apart in the source and are kept apart here.

Test [1] deals with IL-15 induced P-STAT5 in human PBMC (total lymphocytes). Nature of the test: PBMC IL-15 Induced P-STAT5. The format is cell-based. Conditions: IL-15 stimulated, read-out: PBMC IL15-pSTAT5 IC50. The method in brief:
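Thawed human PBMC in RPMI, preincubated 30 min at 37 °C, then IL-15 stimulated. Cells methanol-permeabilized (90%, on ice 20 min) and stained for phospho-STAT5. Read by flow cytometry, gated on total lymphocytes.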

The test system of test [2] is IL-15 induced STAT5 phosphorylation in Human Whole Blood (total lymphocytes). Put plainly: HWB IL-15 Induced STAT5 Phosphorylation Assay. Conditions: Lymphocyte, IL-15 stimulated, read-out: HWB-IL15-pSTAT5 IC50. The format is cell-based.

What is called IC50 is the concentration at which inhibition is half-maximal. Turning to `C=CC(=O)N1CCC(Nc2cnc3[nH]cc(C(=O)NC(C)C)c3n2)CC1` [Example 168, 2-[(1-acryloylpiperidin-4-yl)amino]-N-(propan-2-yl)-5H-pyrrolo[2,3-b]pyrazine-7-carboxamide], the IC50 was found to be 0.0371 µM in test [1] (Homo sapiens, PBMC) and 0.136 µM in test [2].

Consider `C=CC(=O)N1CC[C@H](Nc2cnc3[nH]cc(C(=O)NC(C)C)c3n2)C1` [Example 171, 2-{[(3S)-1-acryloylpyrrolidin-3-yl]amino}-N-(propan-2-yl)-5H-pyrrolo[2,3-b]pyrazine-7-carboxamide], for which the values for the IC50 in test [1] and in test [2] were 0.726 µM and 2.95 µM, respectively.

Take `C=CC(=O)N1CCN(c2cnc3[nH]cc(C(=O)NC(C)C)c3n2)CC1` [Example 174, 2-(4-acryloylpiperazin-1-yl)-N-(propan-2-yl)-5H-pyrrolo[2,3-b]pyrazine-7-carboxamide]: the IC50 in test [1] was 0.0584 µM; in test [2], 0.623 µM.

With `C=CC(=O)N1CCC[C@H]1CNc1cnc2[nH]cc(C(=O)NC(C)C)c2n1` [Example 177, 2-({[(2S)-1-acryloylpyrrolidin-2-yl]methyl}amino)-N-(propan-2-yl)-5H-pyrrolo[2,3-b]pyrazine-7-carboxamide], the concentration for half-maximal inhibition (IC50) in test [1] (Homo sapiens, PBMC) worked out at 0.108 µM; in test [2], 0.804 µM.

As to `C=CC(=O)N1CC(Nc2cnc3[nH]cc(C(=O)NC(C)C)c3n2)C1` [Example 188, 2-[(1-acryloylazetidin-3-yl)amino]-N-(propan-2-yl)-5H-pyrrolo[2,3-b]pyrazine-7-carboxamide], the IC50 in test [1] (Homo sapiens, PBMC) turned out to be 0.155 µM; in test [2], 0.245 µM.

Regarding `C=CC(=O)N1CC[C@@H](CNc2cnc3[nH]cc(C(=O)NC(C)C)c3n2)C1` [Example 191, 2-({[(3S)-1-acryloylpyrrolidin-3-yl]methyl}amino)-N-(propan-2-yl)-5H-pyrrolo[2,3-b]pyrazine-7-carboxamide], the IC50 in test [1] was found to be 2.65 µM; in test [2], 9.58 µM.

In the case of `C=CC(=O)N1CC[C@@H](Nc2cnc3[nH]cc(C(=O)NC(C)C)c3n2)[C@H](O)C1` [Example 196, 2-{[(3R,4R)-1-acryloyl-3-hydroxypiperidin-4-yl]amino}-N-(propan-2-yl)-5H-pyrrolo[2,3-b]pyrazine-7-carboxamide], the IC50 stood at 1.49 µM in test [1] and 3.29 µM in test [2].

For the compound `C=CC(=O)N1CCC(Nc2cnc3[nH]cc(-c4ccnc(C)c4)c3n2)CC1` [Example 201, 1-(4-{[7-(2-methylpyridin-4-yl)-5H-pyrrolo[2,3-b]pyrazin-2-yl]amino}piperidin-1-yl)prop-2-en-1-one], the results for the IC50 in test [1] and in test [2] were 0.262 µM and 3.48 µM, respectively.

`C=CC(=O)N1CCC(Nc2cnc3[nH]cc(-c4cncnc4)c3n2)CC1` [Example 202, 1-(4-{[7-(pyrimidin-5-yl)-5H-pyrrolo[2,3-b]pyrazin-2-yl]amino}piperidin-1-yl)prop-2-en-1-one]: the results for the IC50 in test [1] and in test [2] were 0.67 µM and 3.74 µM, respectively.

Take `C=CC(=O)N1CCC(Nc2cnc3[nH]cc(-c4cccnc4)c3n2)CC1` [Example 205, 1-(4-{[7-(pyridin-3-yl)-5H-pyrrolo[2,3-b]pyrazin-2-yl]amino}piperidin-1-yl)prop-2-en-1-one]: the IC50 in test [1] came to 0.219 µM; in test [2], 1.88 µM.

On to `C=CC(=O)N1CCC(Nc2cnc3[nH]cc(-c4ccc(F)nc4)c3n2)CC1` [Example 207, 1-(4-{[7-(6-fluoropyridin-3-yl)-5H-pyrrolo[2,3-b]pyrazin-2-yl]amino}piperidin-1-yl)prop-2-en-1-one], for which the IC50 in test [1] is 0.185 µM; in test [2], 2.82 µM.

In the case of `C=CC(=O)N1CCC(Nc2cnc3[nH]cc(-c4ccccc4)c3n2)CC1` [Example 209, 1-{4-[(7-phenyl-5H-pyrrolo[2,3-b]pyrazin-2-yl)amino]piperidin-1-yl}prop-2-en-1-one], the IC50 is 0.152 µM in test [1] and 6.69 µM in test [2].

On to `C=CC(=O)N1CCC(Nc2cnc3[nH]cc(-c4cnc(OC)nc4)c3n2)CC1` [Example 210, 1-(4-{[7-(2-methoxypyrimidin-5-yl)-5H-pyrrolo[2,3-b]pyrazin-2-yl]amino}piperidin-1-yl)prop-2-en-1-one], for which the IC50 is 0.463 µM in test [1] (Homo sapiens, PBMC) and 2.68 µM in test [2].

In the case of `C=CC(=O)N1CCC(Nc2cnc3[nH]cc(-c4ccnc(F)c4)c3n2)CC1` [Example 211, 1-(4-{[7-(2-fluoropyridin-4-yl)-5H-pyrrolo[2,3-b]pyrazin-2-yl]amino}piperidin-1-yl)prop-2-en-1-one], the concentration for half-maximal inhibition (IC50) was determined as 0.206 µM in test [1] and 4.33 µM in test [2].

For `C=CC(=O)N1CCC(Nc2cnc3[nH]cc(-c4cncc(F)c4)c3n2)CC1` [Example 212, 1-(4-{[7-(5-fluoropyridin-3-yl)-5H-pyrrolo[2,3-b]pyrazin-2-yl]amino}piperidin-1-yl)prop-2-en-1-one], the figures for the IC50 in test [1] and in test [2] were 0.154 µM and 2.08 µM, respectively.

As to `C=CC(=O)N1CCC(Nc2cnc3[nH]cc(C(=O)N[C@@H]4C[C@H]4C(F)(F)F)c3n2)CC1` [Example 233, 2-[(1-acryloylpiperidin-4-yl)amino]-N-[(1R,2R)-2-(trifluoromethyl)cyclopropyl]-5H-pyrrolo[2,3-b]pyrazine-7-carboxamide], the half-inhibitory concentration (IC50) in test [1] amounted to 0.213 µM; in test [2], 0.532 µM.

Turning to `C=CC(=O)N1CCC(Nc2cnc3[nH]cc(C(=O)NC4CCCC(F)(F)C4)c3n2)CC1` (stereo not shown) [Example 236, 2-[(1-acryloylpiperidin-4-yl)amino]-N-(3,3-difluorocyclohexyl)-5H-pyrrolo[2,3-b]pyrazine-7-carboxamide], the values for the IC50 in test [1] and in test [2] were 0.142 µM and 0.438 µM, respectively.

On to `C=CC(=O)N1CCC(Nc2cnc3[nH]cc(C(=O)NCC4CC(F)(F)C4)c3n2)CC1` [Example 238, 2-[(1-acryloylpiperidin-4-yl)amino]-N-[(3,3-difluorocyclobutyl)methyl]-5H-pyrrolo[2,3-b]pyrazine-7-carboxamide], for which the IC50 in test [1] (Homo sapiens, PBMC) was determined as 0.181 µM; in test [2], 0.615 µM.

As to `C=CC(=O)N1CCC(Nc2cnc3[nH]cc(C(=O)NCCCC(F)(F)F)c3n2)CC1` [Example 240, 2-[(1-acryloylpiperidin-4-yl)amino]-N-(4,4,4-trifluorobutyl)-5H-pyrrolo[2,3-b]pyrazine-7-carboxamide], the IC50 in test [1] was determined as 0.0838 µM; in test [2] it was 0.443 µM.

On to `C=CC(=O)N1CCC(Nc2cnc3[nH]cc(C(=O)NC[C@H](C)CC(F)(F)F)c3n2)CC1` [Example 241, 2-[(1-acryloylpiperidin-4-yl)amino]-N-[(2R)-4,4,4-trifluoro-2-methylbutyl]-5H-pyrrolo[2,3-b]pyrazine-7-carboxamide], for which the IC50 in test [1] (Homo sapiens, PBMC) was 0.0879 µM; in test [2], 0.657 µM.

Take `C=CC(=O)N1CCC(Nc2cnc3[nH]cc(C(=O)NC4CC(F)C4)c3n2)CC1` (stereo not shown) [Example 243, 2-[(1-acryloylpiperidin-4-yl)amino]-N-(3-fluorocyclobutyl)-5H-pyrrolo[2,3-b]pyrazine-7-carboxamide]: the IC50 in test [1] amounted to 0.155 µM; in test [2], 0.617 µM.

Consider `C=CC(=O)N1CCC(Nc2cnc3[nH]cc(C(=O)N[C@H]4CC[C@@H](F)C4)c3n2)CC1` [Example 244, 2-[(1-acryloylpiperidin-4-yl)amino]-N-[(1S,3R)-3-fluorocyclopentyl]-5H-pyrrolo[2,3-b]pyrazine-7-carboxamide], for which the IC50 in test [1] (Homo sapiens, PBMC) came out at 0.127 µM; in test [2] it was 0.403 µM.

Consider `C=CC(=O)N1CCC(Nc2cnc3[nH]cc(C(=O)NC4CC(F)(F)C4)c3n2)CC1` [Example 245, 2-[(1-acryloylpiperidin-4-yl)amino]-N-(3,3-difluorocyclobutyl)-5H-pyrrolo[2,3-b]pyrazine-7-carboxamide], for which the IC50 was determined as 0.228 µM in test [1] and 0.901 µM in test [2].

Regarding `C=CC(=O)N1CCC(Nc2cnc3[nH]cc(C(=O)NCCC(F)(F)F)c3n2)CC1` [Example 246, 2-[(1-acryloylpiperidin-4-yl)amino]-N-(3,3,3-trifluoropropyl)-5H-pyrrolo[2,3-b]pyrazine-7-carboxamide], the IC50 in test [1] is 0.043 µM; in test [2] it was 0.186 µM.

On to `C=CC(=O)N1CCC(Nc2cnc3[nH]cc(C(=O)N[C@H]4CC[C@H](F)C4)c3n2)CC1` [Example 247, 2-[(1-acryloylpiperidin-4-yl)amino]-N-[(1S,3S)-3-fluorocyclopentyl]-5H-pyrrolo[2,3-b]pyrazine-7-carboxamide], for which the IC50 in test [1] (Homo sapiens, PBMC) was 0.141 µM; in test [2], 0.651 µM.

On to `C=CC(=O)N1CCC(Nc2cnc3[nH]cc(C(=O)N[C@@H]4CCC[C@@H]4F)c3n2)CC1` [Example 251, 2-[(1-acryloylpiperidin-4-yl)amino]-N-[(1R,2S)-2-fluorocyclopentyl]-5H-pyrrolo[2,3-b]pyrazine-7-carboxamide], for which the IC50 in test [1] stood at 0.0739 µM; in test [2] it was 0.809 µM.

In the case of `C=CC(=O)N1CCC(Nc2cnc3[nH]cc(C(=O)NCC(C)CC(F)(F)F)c3n2)CC1` (stereo not shown) [Example 253, 2-[(1-acryloylpiperidin-4-yl)amino]-N-(4,4,4-trifluoro-2-methylbutyl)-5H-pyrrolo[2,3-b]pyrazine-7-carboxamide], the IC50 in test [1] (Homo sapiens, PBMC) came out at 0.0775 µM; in test [2], 0.429 µM.

Regarding `C=CC(=O)N1CCC(Nc2cnc3[nH]cc(C(=O)N[C@@H]4CC[C@H](F)C4)c3n2)CC1` [Example 255, 2-[(1-acryloylpiperidin-4-yl)amino]-N-[(1R,3S)-3-fluorocyclopentyl]-5H-pyrrolo[2,3-b]pyrazine-7-carboxamide], the IC50 was 0.13 µM in test [1] (Homo sapiens, PBMC) and 0.818 µM in test [2].

Take `C=CC(=O)N1CCC(Nc2cnc3[nH]cc(C(=O)NC4CCCCC4(F)F)c3n2)CC1` (stereo not shown) [Example 256, 2-[(1-acryloylpiperidin-4-yl)amino]-N-(2,2-difluorocyclohexyl)-5H-pyrrolo[2,3-b]pyrazine-7-carboxamide]: the IC50 was 0.0486 µM in test [1] and 0.55 µM in test [2].
